Where a name gives a salt, the structure may show the parent alone.
Key:
Conditions in all cases: 72 h
Caco-2 [1] = experiment: cell viability relative to DMSO; higher = less toxic
Calu-3 [2] = experiment: as above
HepG2 [3] = experiment: as above
U2OS [4] = experiment: as above
Vero E6 [5] = experiment: as above
Caco-2 [6] = experiment: relative viability EC50 (midpoint between 100% and the lowest measured viability); higher = less toxic
Calu-3 [7] = experiment: as above
HepG2 [8] = experiment: as above
U2OS [9] = experiment: as above
Vero E6 [10] = experiment: as above
Caco-2 [11] = experiment: drug sensitivity score (DSS) for viability; higher = more toxic; extreme values may be limits of the assay
Calu-3 [12] = experiment: as above
HepG2 [13] = experiment: as above
U2OS [14] = experiment: as above
Vero E6 [15] = experiment: as above

| SMILES | cell viability (Caco-2 [1]; 1 nM) | cell viability (Caco-2 [1]; 10 nM) | cell viability (Caco-2 [1]; 100 nM) | cell viability (Caco-2 [1]; 1000 nM) | cell viability (Caco-2 [1]; 10000 nM) | cell viability (Calu-3 [2]; 1 nM) | cell viability (Calu-3 [2]; 10 nM) | cell viability (Calu-3 [2]; 100 nM) | cell viability (Calu-3 [2]; 1000 nM) | cell viability (Calu-3 [2]; 10000 nM) | cell viability (HepG2 [3]; 1 nM) | cell viability (HepG2 [3]; 10 nM) | cell viability (HepG2 [3]; 100 nM) | cell viability (HepG2 [3]; 1000 nM) | cell viability (HepG2 [3]; 10000 nM) | cell viability (U2OS [4]; 1 nM) | cell viability (U2OS [4]; 10 nM) | cell viability (U2OS [4]; 100 nM) | cell viability (U2OS [4]; 1000 nM) | cell viability (U2OS [4]; 10000 nM) | cell viability (Vero E6 [5]; 1 nM) | cell viability (Vero E6 [5]; 10 nM) | cell viability (Vero E6 [5]; 100 nM) | cell viability (Vero E6 [5]; 1000 nM) | cell viability (Vero E6 [5]; 10000 nM) | relative viability EC50 (Caco-2 [6]) | relative viability EC50 (Calu-3 [7]) | relative viability EC50 (HepG2 [8]) | relative viability EC50 (U2OS [9]) | relative viability EC50 (Vero E6 [10]) | drug sensitivity score (Caco-2 [11]) | drug sensitivity score (Calu-3 [12]) | drug sensitivity score (HepG2 [13]) | drug sensitivity score (U2OS [14]) | drug sensitivity score (Vero E6 [15]) |
| --- | --- | --- | --- | --- | --- | --- | --- | --- | --- | --- | --- | --- | --- | --- | --- | --- | --- | --- | --- | --- | --- | --- | --- | --- | --- | --- | --- | --- | --- | --- | --- | --- | --- | --- | --- |
| CN(C)CC(=O)Nc1ccc2[nH]c(=O)c3ccccc3c2c1 [PJ-34] | 91.5% | 101% | 99.3% | 97.2% | 104% | 95.5% | 100% | 96.2% | 104% | 98.5% | 97.5% | 99.3% | 97.8% | 103% | 98.6% | 92.2% | 102% | 94% | 94.6% | 95.6% | 96.7% | 93.2% | 101% | 100% | 102% | > 10 µM | > 10 µM | > 10 µM | > 10 µM | > 10 µM | 0 | 0 | 0 | 0 | 0 |
| CCC(C)SSc1ncc[nH]1 (stereo not given) [PX-12] | 90.8% | 100% | 102% | 93.1% | 97.7% | 106% | 98% | 110% | 84% | 104% | 99.3% | 104% | 104% | 98.3% | 89.8% | 98% | 96.4% | 103% | 97.5% | 84.1% | 96.7% | 97.8% | 103% | 97.5% | 99.8% | > 10 µM | > 10 µM | > 10 µM | > 10 µM | > 10 µM | 0 | 0 | 0 | 0.6 | 0 |
| Cc1cc2nc3c(=O)[nH]c(=O)nc-3n(C)c2cc1C=O [Ro-08-2750] | 92.4% | 90% | 96.4% | 90.2% | 40% | 104% | 103% | 96% | 102% | 81.9% | 109% | 105% | 100% | 109% | 37.1% | 94.4% | 99.2% | 94.1% | 97.8% | 5.6% | 96.6% | 94.3% | 97.6% | 92.5% | 101% | 1.91 µM | > 10 µM | 3.78 µM | 3 µM | > 10 µM | 4.9 | 0.4 | 2.9 | 5.5 | 0 |
| CCCCc1nc2cc(/C=C/C(=O)NO)ccc2n1CCN(CC)CC [SB-939] | 98% | 97.4% | 98% | 37.6% | 0.6% | 95.4% | 89.6% | 65.5% | 30.7% | 7.8% | 99.3% | 109% | 89% | 15.7% | 0% | 101% | 105% | 83.9% | 27.9% | 1.1% | 107% | 99.1% | 95.5% | 13.4% | -0.1% | 0.766 µM | 0.195 µM | 0.362 µM | 0.425 µM | 0.417 µM | 12.9 | 17.6 | 16.8 | 15.5 | 16.3 |
| Nc1nc2c(ccc3ccccc32)s1 [SKA-31] | 99.6% | 104% | 97.5% | 106% | 93.9% | 98.3% | 103% | 101% | 103% | 96.7% | 118% | 109% | 114% | 110% | 99.1% | 100% | 103% | 101% | 102% | 98.9% | 102% | 100% | 103% | 100% | 97.8% | > 10 µM | > 10 µM | > 10 µM | > 10 µM | > 10 µM | 0 | 0 | 0 | 0 | 0 |
| CC1CCN(C(c2ccc(F)cc2)c2ccc(C(C)C(=O)O)cc2-c2ccc(C(F)(F)F)cc2)CC1 (stereo not given) [TC-E-5006] | 105% | 99.5% | 96.2% | 89% | 90.1% | 104% | 92.3% | 94.9% | 96.2% | 103% | 97.5% | 103% | 99% | 101% | 81.6% | 102% | 97.9% | 101% | 96.5% | 93.2% | 97.4% | 104% | 95.4% | 99.2% | 100% | > 10 µM | > 10 µM | > 10 µM | > 10 µM | > 10 µM | 0.3 | 0 | 0.4 | 0 | 0 |
| COc1cccc(C2(O)CCCCC2CN(C)C)c1 (stereo not given) [TRAMADOL HYDROCHLORIDE] | 93.9% | 100% | 96.2% | 95.2% | 98.3% | 106% | 98.2% | 115% | 101% | 96.2% | 93.5% | 96.8% | 97.4% | 89.8% | 106% | 103% | 105% | 97.5% | 99.3% | 99.9% | 101% | 103% | 101% | 97.4% | 101% | > 10 µM | > 10 µM | > 10 µM | > 10 µM | > 10 µM | 0 | 0 | 0 | 0 | 0 |
| Nc1cccc(-c2cc3c(Oc4cccc(O)c4)ncnc3[nH]2)c1 [TWS-119] | 99.3% | 99.4% | 98.2% | 89.5% | 40.4% | 108% | 97.8% | 86.2% | 96.4% | 25.7% | 113% | 107% | 128% | 104% | 90.1% | 103% | 108% | 102% | 96.6% | 25.2% | 110% | 101% | 101% | 82.2% | 24.9% | 1.85 µM | 2.79 µM | > 10 µM | 2.82 µM | 1.59 µM | 5 | 4.6 | 0 | 4.6 | 7 |
| N#C/C(=C\c1cn(-c2ccccc2)c2ccccc12)C(=O)O [UK-5099] | 98.1% | 106% | 100% | 94% | 104% | 106% | 90.1% | 106% | 93.1% | 106% | 105% | 101% | 101% | 97% | 95.7% | 98.5% | 98.8% | 95.4% | 103% | 106% | 98.1% | 102% | 99.7% | 99.8% | 101% | > 10 µM | > 10 µM | > 10 µM | > 10 µM | > 10 µM | 0 | 0 | 0 | 0 | 0 |
| CCC(=O)Nc1cccc(Oc2nc(Nc3ccc(N4CCN(C)CC4)cc3OC)ncc2Cl)c1 [WZ4003] | 99.3% | 105% | 102% | 99.5% | 89.3% | 97% | 97.7% | 94.8% | 96.3% | 82.5% | 100% | 94.3% | 102% | 90.9% | 104% | 97.3% | 103% | 103% | 105% | 102% | 101% | 100% | 102% | 96.2% | 98.6% | > 10 µM | > 10 µM | > 10 µM | > 10 µM | > 10 µM | 0 | 0.7 | 0 | 0 | 0 |
| Cc1nc2ccc(Oc3ccc(F)cc3)cc2c(=O)n1C[C@H]1CCCN(C(C)C)C1 [YIL-781] | 102% | 93.5% | 87.2% | 97.5% | 92.6% | 107% | 88.2% | 94.9% | 97.7% | 97.8% | 101% | 100% | 97.4% | 102% | 90.7% | 104% | 97.1% | 98.6% | 94.4% | 94.7% | 93.8% | 98.3% | 96.4% | 94.3% | 88.3% | > 10 µM | > 10 µM | > 10 µM | > 10 µM | > 10 µM | 0 | 0 | 0 | 0 | 0 |
| COCCNC(=O)COc1ccc(OCCNC[C@H](O)COc2ccccc2)cc1 [ZD-7114] | 95.5% | 95.1% | 94.7% | 86.2% | 103% | 99.1% | 97.2% | 106% | 90% | 108% | 100% | 106% | 93.7% | 104% | 97.1% | 98.4% | 94.5% | 104% | 102% | 102% | 103% | 101% | 96.7% | 104% | 96.5% | > 10 µM | > 10 µM | > 10 µM | > 10 µM | > 10 µM | 0 | 0 | 0 | 0 | 0 |
| Nc1ncnc2c1ncn2CCOCP(=O)(O)O [adefovir] | 106% | 100% | 90.2% | 85.7% | 110% | 97.4% | 103% | 104% | 98.2% | 96.2% | 104% | 99.6% | 98.5% | 98.7% | 101% | 90% | 99.1% | 94.1% | 98% | 100% | 109% | 90.7% | 91.2% | 104% | 108% | > 10 µM | > 10 µM | > 10 µM | > 10 µM | > 10 µM | 0 | 0 | 0 | 0 | 0 |
| C[C@@H](N)Cc1c[nH]c2ccc(O)cc12 [alpha-methylserotonin] | 96.1% | 93% | 88% | 92.8% | 101% | 89.6% | 99.1% | 95.3% | 92.9% | 91.1% | 105% | 102% | 100% | 96.9% | 105% | 99% | 102% | 99.8% | 97.4% | 107% | 91.1% | 94.5% | 94.4% | 90.3% | 104% | > 10 µM | > 10 µM | > 10 µM | > 10 µM | > 10 µM | 0 | 0 | 0 | 0 | 0 |
